Source: patent publication US20170107207A1, “AMINOPYRAZOLONE DERIVATIVE” (DAIICHI SANKYO COMPANY, LIMITED, priority 2014, published 2017)

Tests used:
TIP48/TIP49 complex = biological target: T1, TIP48/TIP49 complex (Homo sapiens, UniProt Q9Y230+Q9Y265); test: ATPase assay of TIP48/TIP49 complex (ADP-Glo); assay type: biochemical; details: concentration at which the ATPase activity was inhibited by 50%
T1 construct: made in house; host or cells: E. coli
Summary of the method: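 Recombinant human TIP48 and TIP49 expressed in E. coli (24.5 μg/mL final) were incubated 1.5 h at room temperature with compound (0.0007–200 μM, 2% DMSO) in Tris-HCl pH 7.5 buffer containing MgCl2 and ATP. ADP formed was detected by ADP-Glo luminescence; inhibition came from dose-response curves.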

[1] = tested on: human lymphoma cell line RAMOS cells; test: Cell growth inhibition test using RAMOS cell, MTT assay; assay type: cell-based; details: 50% growth inhibition concentration
Procedure: A cell growth inhibition test was carried out by treating human lymphoma cell line RAMOS cells with a test compound for a given period and then counting the number of viable cells by MTT assay or CellTiter-Glo Luminescent Cell Viability Assay (manufactured by Promega Corp.; hereinafter, referred to as ATP assay).
RAMOS cells were suspended in a medium (RPMI1640 medium containing 10% fetal bovine serum). The cell suspension was inoculated at 5000 cells/150 μL/well to a 96-well multiwell plate. The test compound was dissolved in DMSO, and this solution was diluted with medium to prepare a sample solution (DMSO concentration: 1% or lower). Subsequently, test compound-free medium or the sample solution was added thereto at 50 μL/well. The MTT assay was carried out at the day of addition of the sample solution or the DMSO dilution to the cells and after culture at 37° C. for 3 days under 5% CO2 of the cells supplemented with the sample solution or the medium. The MTT assay was carried out as follows.
A 5 mg/mL solution of MTT (3-(4,5-dimethylthiazol-2-yl)-2,5-diphenyltetrazolium bromide, Sigma-Aldrich Corp., M-2128) was prepared using a phosphate buffered solution (Dulbecco's phosphate-buffered saline). This MTT solution was added at 20 μL/well to the plate. Then, the plate was incubated at 37° C. for 4 hours under 5% CO2. The plate was centrifuged at 1200 rpm for 5 minutes, and then, the culture supernatant was removed by suction using a dispenser. DMSO was added thereto at 150 μL/well to dissolve formed formazan. […] from each well was rendered uniform by the stirring of the plate using a plate mixer. The absorbance of each well was measured using a plate reader under conditions involving OD of 540 nm and reference of 660 nm.
The number of viable cells and absorbance (hereinafter, referred to as an OD value) have been confirmed to correlate with each other. Therefore, the rate of cell growth was calculated according to the following expression: Rate of cell growth (T/C %) of a test compound-supplemented well=100×[(B−C)/(A−C)] wherein A represents the OD value (final culture date) of a test compound-free well; B represents the OD value (final culture date) of a test compound-containing well; and C represents the OD value (day of cell inoculation) of a well at the start of contact of the cells with the test compound.
T/C % at each concentration of the test compound was determined. The concentration at which the test compound offered 50% growth rate was calculated as a 50% growth inhibition concentration (GI50) value from the growth rates at two points interpolating 50% and the concentrations, and is shown in Table 56.

T1 sequence (Q9Y230 whole entry): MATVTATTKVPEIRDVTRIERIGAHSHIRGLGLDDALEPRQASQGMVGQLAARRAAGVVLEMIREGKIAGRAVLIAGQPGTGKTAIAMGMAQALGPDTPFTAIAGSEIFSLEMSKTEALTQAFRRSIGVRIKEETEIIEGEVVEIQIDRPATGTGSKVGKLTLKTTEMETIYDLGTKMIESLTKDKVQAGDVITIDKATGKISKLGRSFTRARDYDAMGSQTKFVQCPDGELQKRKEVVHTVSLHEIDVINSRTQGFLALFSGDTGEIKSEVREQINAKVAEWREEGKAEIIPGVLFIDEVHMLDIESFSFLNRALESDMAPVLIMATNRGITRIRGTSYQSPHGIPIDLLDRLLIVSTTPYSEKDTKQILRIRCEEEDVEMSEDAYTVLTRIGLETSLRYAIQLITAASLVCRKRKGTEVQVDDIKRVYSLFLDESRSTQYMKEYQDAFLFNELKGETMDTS
T1 sequence (Q9Y265 whole entry): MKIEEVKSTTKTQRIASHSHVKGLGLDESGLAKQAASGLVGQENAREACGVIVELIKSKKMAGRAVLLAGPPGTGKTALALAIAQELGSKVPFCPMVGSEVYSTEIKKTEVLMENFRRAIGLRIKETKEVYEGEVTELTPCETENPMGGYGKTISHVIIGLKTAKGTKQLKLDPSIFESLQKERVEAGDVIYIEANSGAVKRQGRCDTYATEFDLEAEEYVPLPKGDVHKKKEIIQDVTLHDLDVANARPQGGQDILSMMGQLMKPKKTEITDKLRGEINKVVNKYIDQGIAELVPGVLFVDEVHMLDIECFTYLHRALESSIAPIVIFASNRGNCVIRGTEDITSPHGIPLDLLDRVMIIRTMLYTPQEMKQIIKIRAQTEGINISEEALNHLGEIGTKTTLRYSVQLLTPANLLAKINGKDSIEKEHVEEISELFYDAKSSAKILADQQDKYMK

SMILES	IC50 (TIP48/TIP49 complex) [nM]	GI50 [1] [nM]
COc1ccc(Cl)cc1C(=O)NCC(C)(C)CC(=O)Nc1c(CCN)n(C)n(-c2ccccc2)c1=O [Example 21]	110	920
Cc1c(NC(=O)CC(C)(C)CNC(=O)c2cc(Cl)ccc2OC(C)C)c(=O)n(-c2ccccc2)n1C [Example 94]	87	73
CCOc1ncc(Cl)cc1C(=O)NCC(C)(C)CC(=O)Nc1c(C)n(C)n(-c2ccccc2)c1=O [Example 95]	59	180
COc1ccc(Cl)cc1NC(=O)CC(C)(CC(=O)Nc1c(C)n(C)n(-c2ccccc2)c1=O)OC (stereo not shown) [Example 104, N-(5-Chloro-2-methoxyphenyl)-N′-(1,5-dimethyl-3-oxo-2-phenyl-2,3-dihydro-1H-pyrazol-4-yl)-3-methoxy-3-methylpentanediamide]	250	1300
COc1cc(F)c(Cl)cc1NC(=O)CC(C)(C)CC(=O)Nc1c(CN(C)C)n(C)n(-c2ccccc2)c1=O [Example 9, N-(5-Chloro-4-fluoro-2-methoxyphenyl)-N′-{5-[(dimethylamino)methyl]-1-methyl-3-oxo-2-phenyl-2,3-dihydro-1H-pyrazol-4-yl}-3,3-dimethylpentanediamide]	210	480
COc1ccc(Cl)cc1C(=O)NCC(C)(C)CC(=O)Nc1c(C)n(C)n(-c2cccc(C)c2)c1=O [Example 145, 5-Chloro-N-(4-{[1,5-dimethyl-2-(m-toluyl)-3-oxopyrazol-4-yl]amino}-2,2-dimethyl-4-oxobutyl)-2-methoxybenzamide]	42	770
CCOc1ccc(Cl)cc1C(=O)NCC(C)(C)CC(=O)Nc1c(CCNC)n(C)n(-c2ccccc2)c1=O [Example 33, 5-Chloro-N-[2,2-dimethyl-4-({1-methyl-5-[2-(methylamino)ethyl]-3-oxo-2-phenyl-2,3-dihydro-1H-pyrazol-4-yl}amino)-4-oxobutyl]-2-ethoxybenzamide]	63	130
COc1ccc(Cl)cc1C(=O)NCC(C)(C)CC(=O)Nc1c(CCN(C)C)n(C)n(-c2ccccc2)c1=O [Example 22, 5-Chloro-N-[4-({5-[2-(dimethylamino)ethyl]-1-methyl-3-oxo-2-phenyl-2,3-dihydro-1H-pyrazol-4-yl}amino)-2,2-dimethyl-4-oxobutyl]-2-methoxybenzamide]	110	460
COc1ccc(Cl)cc1NC(=O)CC(C)(C)CC(=O)Nc1c(C)n(C)n(C2CCCCC2)c1=O [Example 160, N-(5-Chloro-2-methoxyphenyl)-N′-(1-cyclohexyl-2,3-dimethyl-5-oxopyrazol-4-yl)-3,3-dimethylpentanediamide]	200	990
COc1ccc(Cl)cc1NC(=O)CC1(CC(=O)Nc2c(C)n(C)n(-c3ccccc3)c2=O)CC1 [Example 101, N-(5-Chloro-2-methoxyphenyl)-2-(1-{2-[(1,5-dimethyl-3-oxo-2-phenyl-2,3-dihydro-1H-pyrazol-4-yl)amino]-2-oxoethyl}cyclopropyl)acetamide]	450	3200
Cc1c(NC(=O)CC(C)(C)CC(=O)Nc2cc(Cl)ccc2OC(C)C)c(=O)n(-c2cccc(C(F)(F)F)c2)n1C [Example 147, N-(5-Chloro-2-isopropoxy-phenyl)-N′-[1,5-dimethyl-3-oxo-2-[3-(trifluoromethyl)phenyl]pyrazol-4-yl]-3,3-dimethylpentanediamide]	81	40
Cc1c(NC(=O)CC(C)(C)CNC(=O)c2cc(Cl)cc3c2OC(C)CN3C)c(=O)n(-c2ccccc2)n1C (stereo not shown) [Example 110, 6-Chloro-N-{4-[(1,5-dimethyl-3-oxo-2-phenyl-2,3-dihydro-1H-pyrazol-4-yl)amino]-2,2-dimethyl-4-oxobutyl}-2,4-dimethyl-2,3-dihydro-1,4-benzoxazine-8-carboxamide]	33	120
CCCn1c(C)c(NC(=O)CC(C)(C)CC(=O)Nc2cc(Cl)c(F)cc2OC)c(=O)n1-c1ccccc1 [Example 138, N-(5-Chloro-4-fluoro-2-methoxyphenyl)-3,3-dimethyl-N′-(3-methyl-5-oxo-1-phenyl-2-propylpyrazol-4-yl)pentanediamide]	180	330
CCOc1cc(F)c(Cl)cc1NC(=O)CC(C)(C)CC(=O)Nc1c(CCN(C)C)n(C)n(-c2ccccc2)c1=O [Example 24, N-(5-Chloro-2-ethoxy-4-fluorophenyl)-N′-{5-[2-(dimethylamino)ethyl]-1-methyl-3-oxo-2-phenyl-2,3-dihydro-1H-pyrazol-4-yl}-3,3-dimethylpentanediamide]	380	480
Cc1ccc2cc(Cl)cc(C(=O)NCC(C)(C)CC(=O)Nc3c(C)n(C)n(-c4ccccc4)c3=O)c2n1 [Example 107, 6-Chloro-N-{4-[(1,5-dimethyl-3-oxo-2-phenyl-2,3-dihydro-1H-pyrazol-4-yl)amino]-2,2-dimethyl-4-oxobutyl}-2-methylquinoline-8-carboxamide]	66	190
CCOc1ccc(Cl)cc1C(=O)NCC(C)(C)CC(=O)Nc1c(CCNC(C)C)n(C)n(-c2ccccc2)c1=O [Example 18, 5-Chloro-N-[4-({5-[2-(isopropylamino)ethyl]-1-methyl-3-oxo-2-phenyl-2,3-dihydro-1H-pyrazol-4-yl}amino)-2,2-dimethyl-4-oxobutyl]-2-ethoxybenzamide]	65	550
CCOc1ccc(Cl)cc1NC(=O)CC(C)(C)CC(=O)Nc1c(CCN(C)C)n(C)n(-c2ccccc2)c1=O [Example 23, N-(5-Chloro-2-ethoxyphenyl)-N′-{5-[2-(dimethylamino)ethyl]-1-methyl-3-oxo-2-phenyl-2,3-dihydro-1H-pyrazol-4-yl}-3,3-dimethylpentanediamide]	110	270
CCOc1ccc(Cl)cc1C(=O)NCC(C)(C)CC(=O)Nc1c(COc2cccnc2)n(C)n(-c2ccccc2)c1=O [Example 135, 5-Chloro-N-(2,2-dimethyl-4-{[1-methyl-3-oxo-2-phenyl-5-(3-pyridyloxymethyl)pyrazol-4-yl]amino}-4-oxobutyl)-2-ethoxybenzamide]	100	120
COc1ccc(Cl)cc1C(=O)NCC(C)(C)CC(=O)Nc1c(CCNC(=O)OC(C)(C)C)n(C)n(-c2ccccc2)c1=O [Example 20, tert-Butyl N-{2-[4-({4-[(5-chloro-2-methoxybenzoyl)amino]-3,3-dimethylbutanoyl}amino)-2-methyl-5-oxo-1-phenyl-2,3-dihyro-1H-pyrazol-3-yl]ethyl}carbamate]	65	190
COc1ccc(Cl)cc1C(=O)NCC(C)(C)CC(=O)Nc1c(CN(C)C)n(C)n(-c2ccccc2)c1=O [Example 5, 5-Chloro-N-[4-({5-[(dimethylamino)methyl]-1-methyl-3-oxo-2-phenyl-2,3-dihydro-1H-pyrazol-4-yl}amino)-2,2-dimethyl-4-oxobutyl]-2-methoxybenzamide]	170	180
CCOc1ncc(Cl)cc1NC(=O)CC(C)(C)CC(=O)Nc1c(CCN(C)C)n(C)n(-c2ccccc2)c1=O [Example 25, N-(5-Chloro-2-ethoxy-3-pyridyl)-N′-{5-[2-(dimethylamino)ethyl]-1-methyl-3-oxo-2-phenyl-2,3-dihydro-1H-pyrazol-4-yl}-3,3-dimethylpentanediamide]	140	490
COc1ccc(CN(C)Cc2c(NC(=O)CC(C)(C)CNC(=O)c3cc(Cl)ccc3OC)c(=O)n(-c3ccccc3)n2C)c(OC)c1 [Example 3, 5-Chloro-N-{4-[(5-{[(2,4-dimethoxyphenylmethyl)-methylamino]methyl}-1-methyl-3-oxo-2-phenyl-2,3-dihydro-1H-pyrazol-4-yl)amino]-2,2-dimethyl-4-oxobutyl}-2-methoxybenzamide]	54	850
CCOc1ncc(Cl)cc1C(=O)NCC(C)(C)CC(=O)Nc1c(C)n(C)n(-c2ccccn2)c1=O [Example 150, 5-Chloro-N-(4-{[1,5-dimethyl-3-oxo-2-(2-pyridyl)-2,3-dihydro-1H-pyrazol-4-yl]amino}-2,2-dimethyl-4-oxobutyl)-2-ethoxypyridine-3-carboxamide]	110	350
